Measured values from patent US4737510A, “Bioactive metabolites from the caribbean sponge agelas coniferin” (priority 1986, dated 1988).
Like-named read-outs stand apart in the source and are kept apart here.

Legend:
Escherichia coli = assay: Disc diffusion antimicrobial assay, Escherichia coli; format: cell-based; conditions: for zone of inhibition at 10 µg/disc / zone of inhibition at 50 µg/disc / zone of inhibition at 100 µg/disc: Escherichia coli, 6.5 mm disc, read-out: diameter of the clear zone of inhibition; for zone of inhibition at 10 µg/disc: 10 μg/disk; for zone of inhibition at 50 µg/disc: 50 μg/disk
Bacillus subtilis = assay: Disc diffusion antimicrobial assay, Bacillus subtilis; format: cell-based; conditions: Bacillus subtilis, 6.5 mm disc, read-out: diameter of the clear zone of inhibition; for zone of inhibition at 10 µg/disc: 10 μg/disk; for zone of inhibition at 50 µg/disc: 50 μg/disk; for zone of inhibition at 100 µg/disc: 100 μg/disk
[1] = tested on: Herpes simplex virus, type I (HSV-1); assay: microbe, parasite or virus in culture; format: cell-based; conditions: for zone of inhibition at 20 µg/disc / zone of inhibition at 50 µg/disc / zone of inhibition at 100 µg/disc / zone of inhibition at 200 µg/disc: Human alphaherpesvirus 1, in Primates
[2] = tested on: vesicular stomatitis virus (VSV); assay: microbe, parasite or virus in culture; format: cell-based; conditions: for zone of inhibition at 20 µg/disc / zone of inhibition at 50 µg/disc / zone of inhibition at 100 µg/disc / zone of inhibition at 200 µg/disc: Vesicular stomatitis virus, in Primates
[3] = tested on: Herpes Simplex Virus type 1 (HSV-1); assay: Antiviral activity against HSV-1 determined by Dr. R. G. Hughes, Jr.;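 further: grades: +++ strong ++ moderate + light ± questionable - negative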; format: cell-based
E. coli strain BR339 = format: cell-based
[4] = tested on: monkey kidney (CV-1) cells; assay: Cytotoxicity to monkey kidney (CV-1) cells
[5] = tested on: Monkey Kidney Cells (CV-1); assay: Cytotoxicity to monkey kidney cells (CV-1) determined by Dr. R. G. Hughes, Jr.; conditions: 8 or less essentially indicates noncytotoxicity
[6] = tested on: vesicular stomatitus virus (VSV); format: cell-based; conditions: 100 μg/disk
[7] = Stability of isolated solids; format: physicochemical; conditions: diacetate salts, amorphous solids
[8] = Water solubility (in words); format: physicochemical; conditions: relative to 1a-6a
serotonergic receptor = conditions: cited from earlier work
KB carcinoma = conditions: cited from earlier work
[9] = read-out: antiviral activity, HSV-1, ++ scale
[10] = read-out: antiviral activity, HSV-1, zone diameter
[11] = read-out: antiviral activity, VSV, ++ scale
[12] = read-out: antiviral activity, VSV, zone diameter

| SMILES | zone of inhibition at 10 µg/disc (Escherichia coli) [mm] | zone of inhibition at 50 µg/disc (Escherichia coli) [mm] | zone of inhibition at 100 µg/disc (Escherichia coli; 100 μg/disk) [mm] | zone of inhibition at 10 µg/disc (Bacillus subtilis) [mm] | zone of inhibition at 50 µg/disc (Bacillus subtilis) [mm] | zone of inhibition at 100 µg/disc (Bacillus subtilis) [mm] | zone of inhibition at 20 µg/disc [1, 9] [mm] | zone of inhibition at 50 µg/disc [1, 9] [mm] | zone of inhibition at 100 µg/disc [1, 9] [mm] | zone of inhibition at 200 µg/disc [1, 9] [mm] | zone of inhibition at 20 µg/disc [1, 10] [mm] | zone of inhibition at 50 µg/disc [1, 10] [mm] | zone of inhibition at 100 µg/disc [1, 10] [mm] | zone of inhibition at 200 µg/disc [2, 11] [mm] | zone of inhibition at 200 µg/disc [2, 12] [mm] | HSV-1 activity ([3]; 25 μg/disk) | HSV-1 activity ([3]; 50 μg/disk) | HSV-1 activity ([3]; 100 μg/disk) | BIA activity, numerical color intensity scale 0-10 (E. coli strain BR339) | cytotoxicity, zone diameter ([5]; 25 μg/disk) [mm] | also measured |
| --- | --- | --- | --- | --- | --- | --- | --- | --- | --- | --- | --- | --- | --- | --- | --- | --- | --- | --- | --- | --- | --- |
| Nc1ncc(C2c3nc(N)[nH]c3CC(CNC(=O)c3cc(Br)c(Br)[nH]3)C2CNC(=O)c2cc(Br)c(Br)[nH]2)[nH]1 (stereo not shown) [Compound 6a, Dibromoageliferin Acetate] | 0 | 7 | 7 | 8 | 9 | 9 | 8 to 10 | 11 to 15 | 11 to 15 | 11 to 15 | 9 | 11 | 11 | 8 to 10 | 10 | - | ± | ± | 2 | 6 | zone of inhibition at 200 µg/disc [1, 10]: 12 mm; zone of inhibition at 20 µg/disc [2, 11]: < 7 mm; zone of inhibition at 50 µg/disc [2, 11]: 8 to 10 mm; zone of inhibition at 100 µg/disc [2, 11]: 8 to 10 mm; zone of inhibition at 20 µg/disc [2, 12]: 0 mm; zone of inhibition at 50 µg/disc [2, 12]: 8 mm; zone of inhibition at 100 µg/disc [2, 12]: 9 mm; traces of cytotoxicity, zone ([4]; all concentrations (200, 100, 50, 20 μg/disk)): ≤ 8 mm; cytotoxicity, zone diameter ([5]; 50 μg/disk): 8 mm; cytotoxicity, zone diameter ([5]; 100 μg/disk): 10 mm |
| NC1=NC(=O)C(C2C(CNC(=O)c3ccc[nH]3)C(CNC(=O)c3cc(Br)c[nH]3)C2c2cnc(N)[nH]2)N1 (stereo not shown) [Compound 7a, Debromooxysceptrin Acetate] | 0 | 0 | 0 | 0 | 7 | 8 | < 7 | < 7 | < 7 | 8 to 10 | 0 | 0 | 0 | < 7 | 0 | - | - | - | 4 | 5 | activity against Escherichia coli (Escherichia coli; 100 μg/disk): inactive; activity against HSV-1 [1]: essentially inactive; antiviral zone appearance [1]: diffuse zones; activity against VSV ([2]; 200 μg/disk): essentially inactive; VSV activity [6]: ±; BIA activity (E. coli strain BR339): somewhat less active; BIA zone appearance (E. coli strain BR339): more diffuse zone; stability [7]: stable; water solubility [8]: more water soluble; traces of cytotoxicity, zone ([4]; 200 μg/disk): ≤ 8 mm; cytotoxicity, zone diameter ([5]; 50 μg/disk): 5 mm; cytotoxicity, zone diameter ([5]; 100 μg/disk): 6 mm |
| Cn1c(/C=C\CNC(=O)c2cc(Br)c[nH]2)cnc1N [Keramidine] |  |  |  |  |  |  |  |  |  |  |  |  |  |  |  |  |  |  |  |  | serotonergic receptor activity (serotonergic receptor): serotonergic receptor antagonist |
| N=C(N)NC(=O)c1cc(Br)c[nH]1 [N-amidino-4-bromopyrrole-2-carboxamide] |  |  |  |  |  |  |  |  |  |  |  |  |  |  |  |  |  |  |  |  | effect on KB carcinoma (KB carcinoma): KB carcinoma-altering |
